In publication PMC5329948, “Caspase vinyl sulfone small molecule inhibitors prevent axonal degeneration in human neurons and reverse cognitive impairment in Caspase-6-overexpressing mice” (Molecular Neurodegeneration, 2017):

Tests used:
[1] = test system: Casp6 (VEID-aminoluciferin cleavage); design: method as in PMID 25616965; details: read-out: inhibition of cleavage of VEID-aminoluciferin; cited from earlier work
Caspase-5 = test system: Caspase-5; design: method as in PMID 25616965; details: cited from earlier work
[2] = test system: Casp6 (mutant huntingtin cleavage); design: method as in PMID 25616965; details: read-out: IC50 against mutant huntingtin cleavage (FRET); cited from earlier work
Caspase-3 = test system: Caspase-3; design: method as in PMID 9092497; details: read-out: Michaelis-Menten constant (Km) for Caspase-3; cited from earlier work
recombinant Casp6 = test system: recombinant Casp6; design: method as in PMID 9092497; details: read-out: Michaelis-Menten constant (Km) for recombinant Casp6; cited from earlier work
mammals = details: fmk moiety metabolized into fluorocitrate; cited from earlier work
[3] = test system: APPWT-transfected primary human CNS neurons; assay: Neuritic beading/degeneration in APPWT-transfected primary human neurons; type: cell-based; details: NWL 100 μM, Z-VEID-fmk 5 μM
Protocol: Immunofluorescence on human neuron cultures: Primary human neurons were pre-treated 2 h and serum-deprived in the presence of 100 μM NWL-117, 100 μM NWL-154, or 5 μM Z-VEID-fmk (Biomol, Plymouth meeting, PA, USA) for 24 h. Following treatment, human neurons were washed once with warm PBS, fixed for 20 min at room temperature with 4% paraformaldehyde (Sigma, Oakville, ON, CA)/4% sucrose (BioRad, Mississauga, ON, CA) for TubΔCasp6 or 2% formaldehyde (Thermo Fisher Scientific, Waltham, MA, USA)/0.2% glutaraldehyde (Sigma, Oakville, ON, CA) for pBudEGFP or pBudEGFP/APP^WT-transfected neurons, incubated in permeabilization buffer (0.1% Triton X-100, 0.1 sodium citrate) for 1 min on ice, washed with PBS, blocked for 20 min at room temperature with 10% goat serum (Sigma, Oakville, ON, CA), and incubated with primary antibodies diluted in 10% goat serum in PBS overnight at 4 °C in a humid chamber. The glass coverslips were washed with PBS, and incubated with goat anti-rabbit secondary antibody coupled to Alexa 488 (Molecular Probes, Eugene, OR, USA) or Cy3 (GE Healthcare Life Sciences, Baie D’Urfe, QC, CA) and Hoechst 33342 (ImmunoChemistry, Bloomington, MN, USA) at 1 μg/mL for 2 h at room temperature. The coverslips were washed with PBS and rinsed in Milli-Q water before mounting in fluoromount (Dako, Burlington, ON, CA). Images were acquired by fluorescence microscopy and quantified using the ImageJ software (NIH, Bethesda, MD, USA) for TubΔCasp6 and manually counted for transfected EGFP(+)-neurons. Time lapse-imaging by live fluorescence microscopy: Primary human neurons were transfected with gold beads coated with pBudEGFP or pBudEGFP/APP^WT using a Helios Gene gun (BioRad, Mississauga, ON, CA). Briefly, cells were pre-treated with 100 μM NWL inhibitors or 5 μM Z-VEID-fmk for 2 h. The media was removed and the neurons were shot at 100 psi. The media was quickly replaced with the inhibitors present. The plasmid was expressed for 16 h before setting up the fluorescence microscope (Nikon Eclipse Ti) to acquire 20 images per condition every hour for 72 h at 37 °C with 5% CO2. The images were analyzed by counting the total number of neurons (50–100 neurons per condition per independent experiment), and the number of beaded, swollen soma, and healthy neurons. In addition, the time at which cells beaded was noted. Phase contrast microscopy: HCT116 cells, plated at a density of 1×10^5 cells/well and human neurons, plated at a density of 6×10^6 cells/well on poly-L-lysine were treated with PBS, 100 μM NWL-117, 100 μM NWL-154, or 2 μM staurosporine (Biomol, Plymouth meeting, PA, USA) for 24 h. Images were acquired with the Nikon Eclipse Ti microscope and the NIS-Elements (Version 3.10) software.

Substance: ED11: 24 amino acid peptide (GRKKRRQRRRPPQSSEIVLDGTDN) containing HIV TAT-peptide and huntingtin sequences; Casp6 inhibitor
- IC50 [1]: > 10000 nM
- Caspase-5 activity on the FRET assay (Caspase-5): significant enhancement
- IC50 [2]: 12.1 nM

Substance: VEID: Val-Glu-Ile-Asp peptide substrate sequence preferred by Casp6 (printed: Val-Glu-Ile-Asp)
- Km (Caspase-3): 250 µM
- Km (recombinant Casp6): 30 µM

Substance: benzyloxycarbonyl-Val-Glu-Ile-Asp-fmk [Z-VEID-fmk, reference compound]
- toxicity to mammals (mammals): toxic to mammals
- neuritic beading ([3]; APPWT/EGFP co-expression, 48 h): prevented neuritic beading
- percentage of beaded neurons, fold of EGFP-alone ([3]; live imaging 72 h, APPWT vehicle 1.52, EGFP-alone 1.00, mean ± SEM): 0.97 fold
